The compounds below were run against T1, AM2 receptor (1321N1 cells transfected with CALCRL+RAMP3) (Homo sapiens, UniProt O60896+Q16602) (assay: AM2 receptor inhibition, LANCE cAMP agonist-antagonist competition assay). Details: inhibition of AM induced cAMP activation, read-out: AM2 D2 protocol: pIC50 (converted).
T1 construct: host or cells: 1321N1 cells
Assay type: cell-based
Summary of the method: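 cAMP was quantified by LANCE TR-FRET after an EC50 challenge with adrenomedullin (15 min, room temperature) in CALCRL+RAMP3-transfected 1321N1 cells (2500/well) that had first been exposed to compound for 30 min. Buffer was pH 7.4 HBSS with HEPES and BSA. Forskolin defined 100% stimulation and vehicle 0%.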

T1 sequence (Q16602 23-461): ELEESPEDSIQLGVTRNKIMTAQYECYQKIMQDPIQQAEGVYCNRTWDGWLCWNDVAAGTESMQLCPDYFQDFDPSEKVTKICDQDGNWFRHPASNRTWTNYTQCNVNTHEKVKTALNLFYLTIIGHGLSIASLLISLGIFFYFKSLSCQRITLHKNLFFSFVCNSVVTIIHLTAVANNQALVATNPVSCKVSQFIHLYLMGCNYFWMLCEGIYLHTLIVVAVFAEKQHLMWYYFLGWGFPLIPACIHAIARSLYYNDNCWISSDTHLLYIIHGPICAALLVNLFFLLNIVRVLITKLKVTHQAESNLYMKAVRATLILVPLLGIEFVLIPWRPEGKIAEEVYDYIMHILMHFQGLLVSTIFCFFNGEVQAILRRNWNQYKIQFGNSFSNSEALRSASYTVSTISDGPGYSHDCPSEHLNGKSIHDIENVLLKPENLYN
T1 sequence (O60896 24-148): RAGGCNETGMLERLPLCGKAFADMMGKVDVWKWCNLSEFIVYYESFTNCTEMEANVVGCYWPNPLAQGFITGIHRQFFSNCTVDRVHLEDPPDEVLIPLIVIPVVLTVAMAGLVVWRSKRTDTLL

Compound | IC50 [nM]
CNCc1ccccc1CN(CC(=O)Nc1ccc2c(c1)C[C@@]1(C2)C(=O)Nc2ncccc21)C(=O)C1(C)CCN(C(=O)C(F)F)CC1 [Example 17, (R)-1-(2,2-Difluoroacetyl)-4-methyl-N-(2-((methylamino)methyl)benzyl)-N-(2-oxo-2-((2′-oxo-1,1′,2′,3-tetrahydrospiro[indene-2,3′-pyrrolo[2,3-b]pyridin]-5-yl)amino)ethyl)piperidine-4-carboxamide] | 8.32
CNCc1ccccc1CN(CC(=O)Nc1ccc2c(c1)CC1(C2)C(=O)Nc2ncccc21)C(=O)C1(C)CCN(CC(=O)O)CC1 (stereo not shown) [Example 45, 2-(4-Methyl-4-((2-((methylamino)methyl)benzyl)(2-oxo-2-((2′-oxo-1,1′,2′,3-tetrahydrospiro[indene-2,3′-pyrrolo[2,3-b]pyridin]-5-yl)amino)ethyl)carbamoyl)piperidin-1-yl)acetic Acid] | 2.34
CNCc1ccccc1CN(CC(=O)Nc1ccc2c(c1)C[C@@]1(C2)C(=O)Nc2ncccc21)C(=O)C1(C)CCN(c2ncccn2)CC1 [Example 60] | 38
CNCc1ccccc1CN(CC(=O)Nc1ccc2c(c1)C[C@@]1(C2)C(=O)Nc2ncccc21)C(=O)C1(C)CCN(Cc2ccc(C(=O)O)cc2)CC1 [Example 46, (R)-4-[[4-Methyl-4-[[2-(methylaminomethyl)phenyl]methyl-[2-oxo-2-[[(3R)-2-oxospiro[1H-pyrrolo[2,3-b]pyridine-3,2′-indane]-5′-yl]amino]ethyl]carbamoyl]-1-piperidyl]methyl]benzoic Acid] | 25.7
CNCc1ccccc1CN(C(=O)C1(C)CCN(C(C)=O)CC1)[C@@H](C)C(=O)Nc1ccc2c(c1)C[C@@]1(C2)C(=O)Nc2ncccc21 [Example 66, 1-Acetyl-4-methyl-N-(2-((methylamino)methyl)benzyl)-N—((S)-1-oxo-1-(((R)-2′-oxo-1,1′,2′,3-tetrahydrospiro[indene-2,3′-pyrrolo[2,3-b]pyridin]-5-yl)amino)propan-2-yl)piperidine-4-carboxamide] | 457
CNCc1ccccc1CN(CC(=O)Nc1ccc2c(c1)C[C@@]1(C2)C(=O)Nc2ncccc21)C(=O)C1(C)CCN(C(C)=N)CC1 [Example 58, (R)-1-(1-Iminoethyl)-4-methyl-N-(2-((methylamino)methyl)benzyl)-N-(2-oxo-2-((2′-oxo-1,1′,2′,3-tetrahydrospiro[indene-2,3′-pyrrolo[2,3-b]pyridin]-5-yl)amino)ethyl)piperidine-4-carboxamide] | 2.34
CNCc1ccccc1CN(CC(=O)Nc1ccc2c(c1)C[C@@]1(C2)C(=O)Nc2ncccc21)C(=O)C1(C)CCN(C(=O)c2cccc(N)n2)CC1 [Example 10, (R)-1-(6-Aminopicolinoyl)-4-methyl-N-(2-((methylamino)methyl)benzyl)-N-(2-oxo-2-((2′-oxo-1,1′,2′,3-tetrahydrospiro[indene-2,3′-pyrrolo[2,3-b]pyridin]-5-yl)amino)ethyl)piperidine-4-carboxamide] | 8.91
CNCc1ccccc1CN(CC(=O)Nc1ccc2c(c1)C[C@@]1(C2)C(=O)Nc2ncccc21)C(=O)C1(C)CCN(Cc2ccccc2)CC1 [Example 40, (R)-1-Benzyl-4-methyl-N-(2-((methylamino)methyl)benzyl)-N-(2-oxo-2-((2′-oxo-1,1′,2′,3-tetrahydrospiro[indene-2,3′-pyrrolo[2,3-b]pyridin]-5-yl)amino)ethyl)piperidine-4-carboxamide] | 6.31
CNCc1ccccc1CN(CC(=O)Nc1ccc2c(c1)C[C@@]1(C2)C(=O)Nc2ncccc21)C(=O)C1(C)CCN(C(=O)N2CCC2)CC1 [Example 54, (R)-1-(Azetidine-1-carbonyl)-4-methyl-N-(2-((methylamino)methyl)benzyl)-N-(2-oxo-2-((2′-oxo-1,1′,2′,3-tetrahydrospiro[indene-2,3′-pyrrolo[2,3-b]pyridin]-5-yl)amino)ethyl)piperidine-4-carboxamide] | 3.8
CNCc1ccccc1CN(CC(=O)Nc1ccc2c(c1)C[C@@]1(C2)C(=O)Nc2ncccc21)C(=O)C1(C)CCN(C(=O)Cc2ccncc2)CC1 [Example 13, (R)-4-Methyl-N-(2-((methylamino)methyl)benzyl)-N-(2-oxo-2-((2′-oxo-1,1′,2′,3-tetrahydrospiro[indene-2,3′-pyrrolo[2,3-b]pyridin]-5-yl)amino)ethyl)-1-(2-(pyridin-4-yl)acetyl)piperidine-4-carboxamide] | 15.5

Other lines, results leading:

IC50 [nM] | Compound
8.71 | CCC1(C(=O)N(CC(=O)Nc2ccc3c(c2)C[C@@]2(C3)C(=O)Nc3ncccc32)Cc2ccccc2CNC)CCN(C(=O)C2CC2)CC1 [Example 72, (R)-1-(Cyclopropanecarbonyl)-4-ethyl-N-(2-((methylamino)methyl)benzyl)-N-(2-oxo-2-((2′-oxo-1,1′,2′,3-tetrahydrospiro[indene-2,3′-pyrrolo[2,3-b]pyridin]-5-yl)amino)ethyl)piperidine-4-carboxamide]
174 | CNCc1ccccc1CN(CC(=O)Nc1ccc2c(c1)C[C@@]1(C2)C(=O)Nc2ncccc21)C(=O)C1(COC)CCN(C(C)=O)CC1 [Example 126, (R)-1-Acetyl-4-(methoxymethyl)-N-(2-((methylamino)methyl)benzyl)-N-(2-oxo-2-((2′-oxo-1,1′,2′,3-tetrahydrospiro[indene-2,3′-pyrrolo[2,3-b]pyridin]-5-yl)amino)ethyl)piperidine-4-carboxamide]
417 | CCC1(C(=O)N(CC(=O)Nc2ccc3c(c2)C[C@@]2(C3)C(=O)Nc3ncccc32)Cc2ccccc2CNC)CCN(C)C(=O)C1 (stereo partly drawn) [Example 140, 4-Ethyl-1-methyl-N-(2-((methylamino)methyl)benzyl)-2-oxo-N-(2-oxo-2-(((R)-2′-oxo-1,1′,2′,3-tetrahydrospiro[indene-2,3′-pyrrolo[2,3-b]pyridin]-5-yl)amino)ethyl)piperidine-4-carboxamide]
24 | CCC1(C(=O)N(CC(=O)Nc2ccc3c(c2)C[C@@]2(C3)C(=O)Nc3ncccc32)Cc2ccccc2CNC)CCN(C(=O)N2CCC(F)(F)C2)CC1 [Example 108, (R)-1-(3,3-Difluoropyrrolidine-1-carbonyl)-4-ethyl-N-(2-((methylamino)methyl)benzyl)-N-(2-oxo-2-((2′-oxo-1,1′,2′,3-tetrahydrospiro[indene-2,3′-pyrrolo[2,3-b]pyridin]-5-yl)amino)ethyl)piperidine-4-carboxamide]
7940 | CCC1(C(=O)N(CC(=O)Nc2ccc3c(c2)C[C@@]2(C3)C(=O)Nc3ncccc32)Cc2ccccc2CNC)CCN(C(=O)N2CC(F)(F)C2)CC1 [Example 109, (R)-1-(3,3-Difluoroazetidine-1-carbonyl)-4-ethyl-N-(2-((methylamino)methyl)benzyl)-N-(2-oxo-2-((2′-oxo-1,1′,2′,3-tetrahydrospiro[indene-2,3′-pyrrolo[2,3-b]pyridin]-5-yl)amino)ethyl)piperidine-4-carboxamide]
3.8 | CCC1(C(=O)N(CC(=O)Nc2ccc3c(c2)C[C@@]2(C3)C(=O)Nc3ncccc32)Cc2ccccc2CNC)CCN(C(=O)c2cn[nH]c2)CC1 [Example 85, (R)-4-Ethyl-N-(2-((methylamino)methyl)benzyl)-N-(2-oxo-2-((2′-oxo-1,1′,2′,3-tetrahydrospiro[indene-2,3′-pyrrolo[2,3-b]pyridin]-5-yl)amino)ethyl)-1-(1H-pyrazole-4-carbonyl)piperidine-4-carboxamide]
50.1 | CCC1(C(=O)N(CC(=O)Nc2ccc3c(c2)C[C@@]2(C3)C(=O)Nc3ncccc32)Cc2ccccc2CNC)CCN(C(=O)NC23CC(C2)C3)CC1 [Example 105]
2.19 | CCC1(C(=O)N(CC(=O)Nc2ccc3c(c2)C[C@@]2(C3)C(=O)Nc3ncccc32)Cc2ccccc2CNC)CCN(C(=O)N2CCOCC2)CC1 [Example 103, (R)-4-Ethyl-N-(2-((methylamino)methyl)benzyl)-1-(morpholine-4-carbonyl)-N-(2-oxo-2-((2′-oxo-1,1′,2′,3-tetrahydrospiro[indene-2,3′-pyrrolo[2,3-b]pyridin]-5-yl)amino)ethyl)piperidine-4-carboxamide]
2.45 | CCC1(C(=O)N(CC(=O)Nc2ccc3c(c2)C[C@@]2(C3)C(=O)Nc3ncccc32)Cc2ccccc2CNC)CCN(C(=O)C(C)(C)F)CC1 [Example 88, (R)-4-Ethyl-1-(2-fluoro-2-methylpropanoyl)-N-(2-((methylamino)methyl)benzyl)-N-(2-oxo-2-((2′-oxo-1,1′,2′,3-tetrahydrospiro[indene-2,3′-pyrrolo[2,3-b]pyridin]-5-yl)amino)ethyl)piperidine-4-carboxamide]
8.32 | CNCc1ccccc1CN(CC(=O)Nc1ccc2c(c1)C[C@@]1(C2)C(=O)Nc2ncccc21)C(=O)C1(CC2CC2)CCN(C(C)=O)CC1 [Example 122, (R)-1-Acetyl-4-(cyclopropylmethyl)-N-(2-((methylamino)methyl)benzyl)-N-(2-oxo-2-((2′-oxo-1,1′,2′,3-tetrahydrospiro[indene-2,3′-pyrrolo[2,3-b]pyridin]-5-yl)amino)ethyl)piperidine-4-carboxamide]
8.71 | CCC1(C(=O)N(CC(=O)Nc2ccc3c(c2)C[C@@]2(C3)C(=O)Nc3ncccc32)Cc2ccccc2CNC)CCN(C(=O)COCCOCCOCCOCCOCCOCCOC)CC1 [Example 97, (R)-1-(2,5,8,11,14,17,20-Heptaoxadocosan-22-oyl)-4-ethyl-N-(2-((methylamino)methyl)benzyl)-N-(2-oxo-2-((2′-oxo-1,1′,2′,3-tetrahydrospiro[indene-2,3′-pyrrolo[2,3-b]pyridin]-5-yl)amino)ethyl)piperidine-4-carboxamide]
34.7 | CCC1(C(=O)N(CC(=O)Nc2ccc3c(c2)C[C@@]2(C3)C(=O)Nc3ncccc32)Cc2ccccc2CNC)CCN(S(=O)(=O)N(C)C)CC1 [Example 118, (R)-1-(N,N-Dimethylsulfamoyl)-4-ethyl-N-(2-((methylamino)methyl)benzyl)-N-(2-oxo-2-((2′-oxo-1,1′,2′,3-tetrahydrospiro[indene-2,3′-pyrrolo[2,3-b]pyridin]-5-yl)amino)ethyl)piperidine-4-carboxamide]
